These results are taken from patent US8288512B2, “Use of amphiphilic self-assembling proteins for formulating poorly water-soluble effect substances” (BASF SE, priority 2006, dated 2012).

Values after ≈ are worked out from the molar mass of the structure shown. Like-named read-outs stand apart in the source and are kept apart here. A value given as a limit tells only on which side of the number the result lay.

The nature of data set [1]: Packing of metazachlor in C16 protein microbeads, active substance distribution (photometric at 215 nm). Format: physicochemical. As to the method: 500 μl of a 10 mg/ml C16 protein-comprising potassium phosphate solution (5 mM, pH 8.0) were mixed with 100 μl of a metazachlor solution (50 mg/ml in isopropanol). C16 Protein microbead formation was induced by adding 1 ml of 1 M potassium phosphate buffer (pH 8.0). The mixture was incubated for 1 h at room temperature and then centrifuged for 10 min at 20000×g. The pellet was washed twice with 5 ml of double-distilled H2O and then lyophilized. An identical mixture without C16 protein was carried out as control.
In each case, about 20% of the active substance were present in the wash supernatants.
(§1) Analysis of the Active Substance Distribution (Photometric Determination at λ=215 nm)

For the next data set, the target named is proteinase K (Parengyodontium album, UniProt P06873). Put plainly: Release of metazachlor from C16 protein microbeads by proteinase K digestion. As to the method:
The lyophilized metazachlor-comprising C16 protein microbeads were proteolytically digested in 1 ml of 10 mM Tris buffer; 0.1% SDS; 100 μg of proteinase K for 1 h at 37° C. The active substance crystals remaining from the mixture after centrifugation for 10 minutes (20000×g) were dissolved in 500 μl of isopropanol. About 11% of the amount of metazachlor used was detected in the supernatant of the protease digestion. The active substance crystals redissolved in isopropanol constituted about 35% of the amount of metazachlor used.
as §1

For data set [2] the following is noted: cited from earlier work.
[3] abbreviates: of the amount of metazachlor used.
Where [4] appears, read: proteinase K, 1 h, 37° C., 5.0 mg metazachlor used.

proteinase K, sequence (P06873 106-384): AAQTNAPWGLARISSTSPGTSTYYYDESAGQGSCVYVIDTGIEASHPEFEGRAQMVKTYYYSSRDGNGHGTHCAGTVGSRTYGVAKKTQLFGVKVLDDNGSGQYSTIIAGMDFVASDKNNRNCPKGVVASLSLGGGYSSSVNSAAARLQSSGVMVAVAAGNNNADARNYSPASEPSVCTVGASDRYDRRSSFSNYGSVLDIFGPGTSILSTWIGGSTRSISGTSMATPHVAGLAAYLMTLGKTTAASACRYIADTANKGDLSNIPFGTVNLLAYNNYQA

For the molecule `Cc1cccc(C)c1N(Cn1cccn1)C(=O)CCl` [metazachlor], the “Crystal formation after potassium phosphate precipitation” value in data set [1] (mixture with C16 protein) is “no metazachlor crystals were visible”. Also, the “Crystal formation after potassium phosphate precipitation” value in data set [1] (mixture without C16 protein) was “large active substance crystals were formed”. Further, on proteinase K (setting [3]), the “Active substance crystals redissolved in isopropanol” value is given as “about 35%” and the “Metazachlor detected in the supernatant of the protease digestion” value is given as “About 11%”. Further, on proteinase K (setting [4]), the “Amount of substance, pellet after digestion in isopropanol” value is 1.74 mg and the “Amount of substance, supernatant after protease digestion” value was found to be 0.55 mg.

For `Clc1ccccc1C(c1ccccc1)(c1ccccc1)n1ccnc1` [Clotrimazole], the Solubility in water in data set [2] (25° C.) was less than 10 µg/mL.

In the case of `NC(=O)N1c2ccccc2C=Cc2ccccc21` [Carbamazipine], the Solubility in water in data set [2] (RT) is 945.1 µg/mL (≈ 4000 µM).

B1: C16 protein: synthetic spider silk protein with the polypeptide sequence shown in SEQ ID NO: 1 (protein)
chain: MASMTGGQQMGRGSMGSSAAAAAAAASGPGGYGPENQGPSGPGGYGPGGPGSSAAAAAAAASGPGGYGPENQGPSGPGGYGPGGPGSSAAAAAAAASGPGGYGPENQGPSGPGGYGPGGPGSSAAAAAAAASGPGGYGPENQGPSGPGGYGPGGPGSSAAAAAAAASGPGGYGPENQGPSGPGGYGPGGPGSSAAAAAAAASGPGGYGPENQGPSGPGGYGPGGPGSSAAAAAAAASGPGGYGPENQGPSGPGGYGPGGPGSSAAAAAAAASGPGGYGPENQGPSGPGGYGPGGPGSSAAAAAAAASGPGGYGPENQGPSGPGGYGPGGPGSSAAAAAAAASGPGGYGPENQGPSGPGGYGPGGPGSSAAAAAAAASGPGGYGPENQGPSGPGGYGPGGPGSSAAAAAAAASGPGGYGPENQGPSGPGGYGPGGPGSSAAAAAAAASGPGGYGPENQGPSGPGGYGPGGPGSSAAAAAAAASGPGGYGPENQGPSGPGGYGPGGPGSSAAAAAAAASGPGGYGPENQGPSGPGGYGPGGPGSSAAAAAAAASGPGGYGPENQGPSGPGGYGPGGPG
modifications: Synthetic spider silk C16 protein
In the case of B1, the “Effect on the crystallization of metazachlor” value in data set [1] (in the presence of aqueous potassium phosphate buffer) was “significant inhibitiory effect”.
